In PMC10831071, “Reaction hijacking inhibition of Plasmodium falciparum asparagine tRNA synthetase” (Nature Communications, 2024):
“And” between values parts separate entries of the source, which are not always exact repeats. Equal values may be shown once.

Legend:
P. falciparum Dd2 parent = test: 72 h sensitivity of wildtype Dd2 parent line; type: cell-based, Plasmodium falciparum; conditions: for growth after 72 h exposure, normalised to no drug: replicates
[1] = test system: control YFP line (TetR/DOZI module); test: OSM-S-106 susceptibility assay, control YFP line; type: cell-based, Plasmodium falciparum; conditions: YFP-aptamer control line
Description: Synchronous ring-stage PfAsnRS, PfAlaRS, PfGlyRS, PfNT4, PfGDH3, and PfCA cKD parasites, as well as a control line expressing a fluorescent protein under the control of the TetR/DOZI module, were maintained in 0.5 µM aTc to achieve wild-type protein levels, and 0.001 or 0.0015 µM aTc for knockdown of PfAsnRS, PfAlaRS and PfGlyRS, and no aTc for knockdown of PfNT4, PfGDH3 and PfCA. DMSO- and dihydroartemisinin-treatment (0.5 µM) served as reference controls.

PfAsnRS = test: LC-MS of Asn-OSM-S-106 adduct generated by recombinant PfAsnRS; type: biochemical, Plasmodium falciparum; conditions: 1 μM PfAsnRS, 10 μM OSM-S-106, 1 h, 37 °C; individual experiments
Description: The reaction buffer consists of 100 mM HEPES pH 7.5 (KOH), 160 mM KCl, 3.5 mM MgCl2, 1 mM DTT. The mixture was incubated at 37 °C for 1 h. After that, an equal volume of 8 M urea was added to the mixture. Finally, trifluoroacetic acid was added to a final concentration of 1%. The sample was centrifuged at 15,000 × g for 10 min and the supernatant was used for LCMS analysis. […] Quantification of the conjugates was done using Skyline (version 21.1.0.278).
Samples were analyzed by reversed-phase ultra-high-performance liquid chromatography (UHPLC) coupled to tandem mass spectrometry (MS/MS) employing a Vanquish UHPLC linked to an Orbitrap Fusion Lumos mass spectrometer (Thermo Fisher Scientific, San Jose, CA, USA) operated in positive ion mode. Solvent A was 0.1% formic acid/10 mM ammonium acetate in water and solvent B was 0.1% formic acid/10 mM ammonium acetate in acetonitrile. […] Finally, the percentage of solvent B was decreased to 0% in 0.1 min and maintained for 3.9 min.
MS experiments were performed using a Heated Electrospray Ionization (HESI) source. The spray voltage, flow rate of sheath, auxiliary and sweep gases were 3.5 kV, 20, 6, and 1 ‘arbitrary’ unit(s), respectively. The ion transfer tube and vaporizer temperatures were maintained at 350 °C and 400 °C, respectively, and the S-Lens RF level was set at 50%. […]

Nc1ncnc2cc(-c3cccc(S(N)(=O)=O)c3)sc12 [OSM-S-106]
growth after 72 h exposure, normalised to no drug (P. falciparum Dd2 parent; Dd2 parent, 3.90625 nM): 105.433 and 105.733 and 104.567 and 104.167 and 104.633 | growth after 72 h exposure, normalised to no drug (P. falciparum Dd2 parent; Dd2 parent, 7.8125 nM): 105.2 and 103.8 and 105.633 and 102.933 and 104.1 | growth after 72 h exposure, normalised to no drug (P. falciparum Dd2 parent; Dd2 parent, 31.25 nM): 88.9667 and 98.9 and 97.0667 and 93.5333 and 97.5667 | growth after 72 h exposure, normalised to no drug (P. falciparum Dd2 parent; Dd2 parent, 62.5 nM): 45.3 and 68.4 and 68.8333 and 58.4667 and 65.5 | growth after 72 h exposure, normalised to no drug (P. falciparum Dd2 parent; Dd2 parent, 125 nM): 7.633 and 16.6667 and 15.5333 and 13.8333 and 17.5667 | growth after 72 h exposure, normalised to no drug (P. falciparum Dd2 parent; Dd2 parent, 250 nM): 0.2 and 1.267 and 0.5667 and -1.767 and 2.067 | growth after 72 h exposure, normalised to no drug (P. falciparum Dd2 parent; Dd2 parent, 500 nM): -1.167 and 0 and -0.8 and -3.167 and 0.4 | growth after 72 h exposure, normalised to no drug (P. falciparum Dd2 parent; Dd2 parent, 1000 nM): -1.867 and -0.3333 and -1.3 and -3.5 and -0.4667 | growth after 72 h exposure, normalised to no drug (P. falciparum Dd2 parent; Dd2 parent, 2000 nM): -0.8333 and -0.3667 and -0.8667 and -2.833 and 0.5 | IC50 (P. falciparum Dd2 parent; Dd2 parent, individual experiments): 75.6 nM and 76.2 nM and 70 nM and 74.2 nM | IC50 (P. falciparum Dd2 parent; Plasmodium falciparum, DD2, Dd2 parent, individual experiments): 57 nM | IC50 (P. falciparum Dd2 parent; Plasmodium falciparum, DD2, Dd2 parent, mean ± S.D., five experiments): 71 nM | Growth ([1]; 3.125 nM OSM-S-106, 500 nM aTc): 98.4708 and 116.919 and 104.321 | Growth ([1]; 3.125 nM OSM-S-106, no aTc): 98.4734 and 92.161 and 100.93 | Growth ([1]; 6.25 nM OSM-S-106, 500 nM aTc): 96.7408 and 93.8415 and 101.366 | Growth ([1]; 6.25 nM OSM-S-106, no aTc): 92.1288 and 90.7869 and 100.211 | Growth ([1]; 12.5 nM OSM-S-106, 500 nM aTc): 103.105 and 71.6867 and 103.065 | Growth ([1]; 12.5 nM OSM-S-106, no aTc): 102.145 and 82.3472 and 97.2955 | Growth ([1]; 25 nM OSM-S-106, 500 nM aTc): 96.4937 and 50.4813 and 93.5 | Growth ([1]; 25 nM OSM-S-106, no aTc): 103.53 and 55.9318 and 95.9432 | MS peak area (Asn-OSM-S-106 adduct) (PfAsnRS): 50050244 and 46285516 and 50264000 and 46572204
